{"source": "patent US10130571B2", "about": "“Dentifrice Comprising Zinc-Amino Acid Complex and Phosphates” (Colgate-Palmolive Company, priority 2014, dated 2018)", "tested_on": "biofilms", "experiment": "Biofilm formation on HAP discs pre-treated with a simple solution of lysine", "format": "cell-based", "conditions": "after 48 h, visual", "source_text": "We pre-treated HAP discs with a simple solution of lysine to see how an overabundance of free lysine would affect biofilm formation.", "data": [{"smiles": "NCCCC[C@H](N)C(=O)O", "note": "[lysine]", "values": [{"measurement": "appearance of biofilms after lysine pre-treatment", "result": "visually were overgrown"}]}]}
